System: T1, NucGT
T1 construct: glucosyltransferase enzyme
Test: HPLC product assay at […] nm, initial rates, Michaelis-Menten fit
Assay type: biochemical, Streptomyces calvus
Conditions: 17.7 mM UDP-glucose (saturating), 100 mM MgCl2, 50 mM Tris-HCl pH 7.8, 37 °C

SMILES	Km [µM]
Nc1ncnc2c1ncn2[C@@H]1O[C@H](CO)[C@@H](O)[C@H]1O [adenosine]	487 ± 53
C=C1O[C@@H](n2cnc3c(N)ncnc32)[C@H](O)[C@@H]1O [compound 12, 4′,5′-didehydro-5′-deoxyadenosine]	365 ± 6
